Results from patent US11213567B2, “ZAG-derived peptide and use thereof” (L&C Bio Co., LTD., priority 2017, dated 2022).

Tests used:
[1] = system: CCL17/TARC; test: Atopic dermatitis efficacy test using keratinocytes (HaCaT): CCL17/TARC released after TNF-α and IFN-γ, ELISA; type: cell-based, human; parameters: key to HaCaT (human) CCL17/TARC: •: have statistical significance, determining as effective, compared with the positive control; conditions: for HaCaT (human) CCL17/TARC: 1 μg/mL for 24 hours, then TNF-α 0.4 μg/mL, IFN-γ 0.4 μg/mL 24 hours
Description: (§1) To select an amino acid sequence corresponding to a key active site of ZAG having efficacy in the alleviation of atopic symptoms from 18 peptide candidate groups, an atopic dermatitis efficacy test was performed. Five types of immune-related cells were treated with ZAG peptide candidate groups (Z1-Z18, SEQ ID NOs: 1 to 18, respectively) and the ZAG protein (Z0, SEQ ID NOs: 19) at a concentration of 1 μg/mL for 24 hours, and then treated with a stimulator suitable for each cell line for the listed time to confirm an immune response. The experiment was performed with a group treated with only a stimulator as a positive control experimental group, and a group treated with only a vehicle without a stimulator as a negative control experimental group (Table 2: Efficacy test method for atopic dermatitis). An inflammatory response-related enzyme used as a stimulator is produced by immune cells, and histamine initiates an inflammatory response. The immune cells migrating to a damaged region release cytokines such as tumor necrosis factor-α (TNF-α) and interleukin-6 (IL-6) to directly lyse foreign invasive substances or collect other immune cells to initiate an inflammatory response. An efficacy test using inflammation-inducing materials, interferon-γ and skin inflammation-related factor CCL-17/thymus- and activation-regulated chemokine (TARC) was also performed to confirm an immune response.
Keratinocytes (HaCaT cells) were treated with 0.4 μg/mL of TNF-α and 0.4 μg/mL of IFN-γ as stimulators for 24 hours, and then a concentration of CCL17/TARC released in a cell culture medium was confirmed by ELISA assay.
(§2) Various types of immune cells were treated with each of Z20mer-1, Z20mer-2, Z20mer-3, Z15mer-1, Z15mer-2, Z15mer-3 and Z15mer-4 at a concentration of 1 μg/mL for 24 hours, and then treated with a stimulator suitable for each cell line for the listed time to confirm an immune response. The atopic dermatitis efficacy test method was performed by the same method as described in Example 1 and Table 2.
(§3) The experiment was performed with experimental groups: 1) negative control: vehicle-treated group (Neg), 2) positive control: a group treated with only a stimulator (Pos), and 3) experimental group: groups treated with a stimulator and ZAG3 or a ZAG3-derived oligopeptide (Z20mer-1, Z20mer-2, Z20mer-3, Z15mer-1, Z15mer-2, Z15mer-3 or Z15mer-4). Concentrations were measured from cell culture by ELISA.

[2] = system: IgE; test: Atopic dermatitis efficacy test using B lymphocytes (RPMI 1788): IgE released after LPS, ELISA; type: cell-based, human; parameters: key: •: have statistical significance, determining as effective, compared with the positive control; conditions: then LPS 0.1 μg/mL 24 hours
Description: as §1
(§4) B lymphocytes (RPMI 1788) were treated with 0.1 μg/mL of LPS as a stimulator for 24 hours, and a concentration of IgE released in a cell culture medium was confirmed by ELISA assay.
as §2, §3
as §4, with “and then” for “and”, “assay. As compared with the positive control (Pos), in all of the oligopeptide-treated groups, IgE was reduced (FIG. 2D).” for “assay.”

[3] = system: IL-6; test: Atopic dermatitis efficacy test using macrophages (RAW 264.7): IL-6 released after LPS, ELISA; type: cell-based, mouse; parameters: key to RAW 264.7 (mouse) IL-6: •: have statistical significance, determining as effective, compared with the positive control; conditions: for RAW 264.7 (mouse) IL-6: 1 μg/mL for 24 hours, then LPS 0.1 μg/mL 24 hours; for IL-6 concentration released in cell culture medium: Example 2-1, FIG. 2A, RAW 264.7, 1 μg/mL 24 hours, LPS 0.1 μg/mL 24 hours, compared with positive control (Pos)
Description: as §1
Macrophages (RAW 264.7 cells) were treated with a stimulator LPS at a concentration of 0.1 μg/mL for 24 hours, and then the concentration of IL-6 released in a cell culture medium was confirmed by ELISA assay.
as §2, §3
Macrophages (RAW 264.7 cells) were treated with a stimulator LPS at a concentration of 0.1 μg/mL for 24 hours, and then a concentration of IL-6 released in a cell culture medium was confirmed by ELISA assay.

[4] = system: Histamine; test: Atopic dermatitis efficacy test using mast cells (RBL-2H3): histamine released after PMA and A23187, ELISA; type: cell-based, rat; parameters: key: •: have statistical significance, determining as effective, compared with the positive control; conditions: 1 μg/mL for 24 hours, then PMA 1 μg/mL, A23187 1 μg/mL 12 hours
Description: as §1
Mast cells (RBL-2H3) were treated with 1 μg/mL of PMA and 1 μg/mL of A23187 as stimulators for 12 hours, and a concentration of histamine released in a cell culture medium was confirmed by ELISA assay.
as §2, §3
Mast cells (RBL-2H3) were treated with 1 μg/mL of PMA and 1 μg/mL of A23187 as simulators for 12 hours, and then a concentration of histamine released in a cell culture medium was confirmed by ELISA assay. As compared with the positive control (Pos), in all of the oligopeptide-treated groups, the histamine release was reduced (FIG. 2B).

[5] = system: IL-4; test: Atopic dermatitis efficacy test using T lymphocytes: IL-4 released after IL-2, ELISA; type: cell-based, human; parameters: key to T lymphocyte (human) IL-4: •: have statistical significance, determining as effective, compared with the positive control; conditions: for IL-4 concentration released in cell culture medium: Example 1-5, FIG. 1E, IL-2 50 ng/mL 12 hours; for IL-4 concentration released in cell culture medium / IL-4: T lymphocytes, 1 μg/mL 24 hours; for T lymphocyte (human) IL-4: 1 μg/mL for 24 hours, then IL-2 50 ng/mL 12 hours; for IL-4: Example 2-5, FIG. 2E, compared with positive control (Pos)
Description: as §1
An atopic dermatitis efficacy test using T lymphocytes was performed with six peptide candidate groups (Z3, Z4, Z5, Z12, Z14, and Z15), which were determined to have efficacy from the results of Examples 1-1 to 1-4 described above. T lymphocytes were treated with 50 ng/mL of IL-2 as a stimulator for 12 hours, and a concentration of IL-4 released in a cell culture medium was confirmed by ELISA assay.
as §2, §3
An experiment was performed on T lymphocytes using the target peptides selected through the previous experiment. As compared with the positive control (Pos), in all of the oligopeptide-treated groups (Z20mer-1, Z20mer-2, Z20mer-3, Z15mer-1, Z15mer-2, Z15mer-3, and Z15mer-4), IL-4 was reduced (FIG. 2E).

[6] = Table 3, 1 μg/mL for 24 hours, vs stimulator only
[7] = Table 5, 1 μg/mL for 24 hours, vs positive control

Row | Substance | HaCaT (human) CCL17/TARC ([1]; Table 3, vs stimulator only) | B lymphocyte (human) IgE [2, 6] | RAW 264.7 (mouse) IL-6 ([3]; Table 3, vs stimulator only) | RBL-2H3 (rat) Histamine ([4]; Table 3, vs stimulator only) | further results
1 | Z8: ZAG protein-derived peptide, SEQ ID NO. 8: YPGKIDVHWTRAGEVQEPELRGDVLHNGNG (ZAG protein-derived peptide) | • | • | • | • | 
2 | Z15: ZAG protein-derived peptide, SEQ ID NO. 15: ENNRSSGAFWKYYYDGKDYIEFNKEIPAWV (listed as Homo sapiens) |  |  |  | • | IL-4 concentration released in cell culture medium [5]: significantly decreased
3 | Z16: ZAG protein-derived peptide, SEQ ID NO. 16: APGEKKKLKCLAYDFYPGKIDVHWTRAGEV (ZAG protein-derived peptide) |  | • |  |  | T lymphocyte (human) IL-4 ([5]; Table 3, vs stimulator only): •
4 | Z13: ZAG protein-derived peptide, SEQ ID NO. 13: CPATLRKYLKYSKNILDRQDPPSVVVTSHQ (ZAG protein-derived peptide) | • | • |  |  | 
5 | Z12: ZAG protein-derived peptide, SEQ ID NO. 12: PFDPAAQITKQKWEAEPVYVQRAKAYLEEE (ZAG protein-derived peptide) | • | • |  |  | IL-4 concentration released in cell culture medium [5]: significantly decreased; T lymphocyte (human) IL-4 ([5]; Table 3, vs stimulator only): •
6 | Z9: ZAG protein-derived peptide, SEQ ID NO. 9: TYQSWVVVAVPPQDTAPYSCHVQHSSLAQP (listed as Homo sapiens) |  |  | • | • | 
7 | Z7: ZAG protein-derived peptide, SEQ ID NO. 7: LDRQDPPSVVVTSHQAPGEKKKLKCLAYDF (ZAG protein-derived peptide) | • | • | • | • | 
8 | Z15mer-1: ZAG3-derived oligopeptide, SEQ ID NO. 23: EDWKQDSQLQKARED (ZAG protein-derived peptide) |  |  |  |  | B lymphocyte (human) IgE [2, 7]: •; IL-6 concentration released in cell culture medium [3]: significantly decreased; RAW 264.7 (mouse) IL-6 ([3]; Table 5, vs positive control): •; IL-4 [5]: reduced; T lymphocyte (human) IL-4 ([5]; Table 5, vs positive control): •; RBL-2H3 (rat) Histamine ([4]; Table 5, vs positive control): •
9 | Z10: ZAG protein-derived peptide, SEQ ID NO. 10: GLSKHVEDVPAFQALGSLNDLQFFRYNSKD (ZAG protein-derived peptide) | • |  | • | • | 
10 | Z20mer-1: ZAG3-derived oligopeptide, SEQ ID NO. 20: EDWKQDSQLQKAREDIFMET (ZAG protein-derived peptide) |  |  |  |  | CCL17/TARC concentration released in cell culture medium ([1]; Example 2-3, FIG. 2C, HaCaT, 1 μg/mL 24 hours, TNF-α 0.4 μg/mL and IFN-γ 0.4 μg/mL 24 hours, compared with positive control (Pos)): significantly decreased; HaCaT (human) CCL17/TARC ([1]; Table 5, vs positive control): •; B lymphocyte (human) IgE [2, 7]: •; IL-4 [5]: reduced; T lymphocyte (human) IL-4 ([5]; Table 5, vs positive control): •; RBL-2H3 (rat) Histamine ([4]; Table 5, vs positive control): •
11 | Z17: ZAG protein-derived peptide, SEQ ID NO. 17: QEPELRGDVLHNGNGTYQSWVVVAVPPQDT (ZAG protein-derived peptide) |  | • |  | • | 
12 | Z20mer-3: ZAG3-derived oligopeptide, SEQ ID NO. 22: KAREDIFMETLKDIVEYYND (ZAG protein-derived peptide) |  |  |  |  | B lymphocyte (human) IgE [2, 7]: •; IL-6 concentration released in cell culture medium [3]: significantly decreased; RAW 264.7 (mouse) IL-6 ([3]; Table 5, vs positive control): •; IL-4 [5]: reduced; T lymphocyte (human) IL-4 ([5]; Table 5, vs positive control): •; RBL-2H3 (rat) Histamine ([4]; Table 5, vs positive control): •
13 | Z1: ZAG protein-derived peptide, SEQ ID NO. 1: QENQDGRYSLTYIYTGLSKHVEDVPAFQAL (ZAG protein-derived peptide) | • |  | • | • | 
14 | Z20mer-2: ZAG3-derived oligopeptide, SEQ ID NO. 21: DSQLQKAREDIFMETLKDIV (ZAG protein-derived peptide) |  |  |  |  | B lymphocyte (human) IgE [2, 7]: •; IL-4 [5]: reduced; T lymphocyte (human) IL-4 ([5]; Table 5, vs positive control): •; RBL-2H3 (rat) Histamine ([4]; Table 5, vs positive control): •
15 | Z15mer-2: ZAG3-derived oligopeptide, SEQ ID NO. 24: DSQLQKAREDIFMET (ZAG protein-derived peptide) |  |  |  |  | B lymphocyte (human) IgE [2, 7]: •; IL-6 concentration released in cell culture medium [3]: significantly decreased; RAW 264.7 (mouse) IL-6 ([3]; Table 5, vs positive control): •; IL-4 [5]: reduced; T lymphocyte (human) IL-4 ([5]; Table 5, vs positive control): •; RBL-2H3 (rat) Histamine ([4]; Table 5, vs positive control): •
16 | Z11: ZAG protein-derived peptide, SEQ ID NO. 11: RKSQPMGLWRQVEGMEDWKQDSQLQKARED (ZAG protein-derived peptide) |  |  |  | • | 
17 | Z2: ZAG protein-derived peptide, SEQ ID NO. 2: GSLNDLQFFRYNSKDRKSQPMGLWRQVEGM (ZAG protein-derived peptide) | • |  | • | • | 
18 | Z6: ZAG protein-derived peptide, SEQ ID NO. 6: EPVYVQRAKAYLEEECPATLRKYLKYSKNI (ZAG protein-derived peptide) | • | • | • | • | 
19 | Z18: ZAG protein-derived peptide, SEQ ID NO. 18: AVPPQDTAPYSCHVQHSSLAQPLVVPWEAS (ZAG protein-derived peptide) | • | • |  | • | 
